According to US20230094076A1, “COMBINATION THERAPY” (GlaxoSmithKline Intellectual Property Development Limited, priority 2016, published 2023):
Like-named read-outs stand apart in the source and are kept apart here.

Columns and labels:
PRMT5/MEP50 = PRMT5/MEP50 (Homo sapiens, UniProt O14744); experiment: PRMT family radioactive assay; type: biochemical; details: 60 minute SAM:Enzyme:Compound A preincubation
ccRCC cell lines = details: only at highest concentration
[1] = test system: arginine methylation (ADMA, MMA, SDMA) in Toledo cells; experiment: Durability of arginine methylation changes after compound washout (western); type: cell-based, human; details: 0.4 μM for 72 hours, then washout
Procedure: (A) Stability of changes to ADMA. […] (B) Representative western blots of arginine methylation marks. Regions quantified for (A) are denoted by black bars on the side of the gel.
Cells were then washed, cultured in Compound A-free media, samples were collected daily through 120 hours, and arginine methylation levels were examined by western analysis. […] SDMA appeared to continue to increase even after 6 hours of washout. This is consistent with the continued increase observed through 120 hours without any obvious plateau (FIG. 12) coupled with the durable increase in MMA that has not yet returned to baseline after washout. Durability of each modification generally reflected the kinetics of arginine methylation changes brought about by Compound A, with MMA being the most rapid.

PRMT9 = PRMT9 (Homo sapiens, UniProt Q6P2P2); experiment: PRMT family radioactive assay; type: biochemical; details: 60 minute SAM:Enzyme:Compound A preincubation
PRMT4 = PRMT4 (Homo sapiens, UniProt Q86X55); experiment: PRMT family radioactive assay; type: biochemical
PRMT8 = PRMT8 (Homo sapiens, UniProt Q9NR22); experiment: PRMT family radioactive assay; type: biochemical
[2] = test system: arginine methylation (ADMA, MMA, SDMA) in Toledo cells; experiment: Western analysis of arginine methylation, time course; type: cell-based, human; details: 0.4 μM
Procedure: (B) Representative western blots of arginine methylation marks. Regions quantified are denoted by black bars on the right of the gel.
As predicted, ADMA methylation decreased while MMA increased upon compound exposure (FIG. 12). […] Given the detection of numerous substrates with varying kinetics, and variability of ADMA levels among DMSO-treated samples, both the full lane and a prominent 45 kDa band were characterized to assess ADMA. Increases in MMA were apparent by 24 hours and near maximal by 48 hours while decreases in the 45 kDa ADMA band required 72-96 hours to achieve maximal effect. Increases in SDMA were apparent after 48 hours of compound exposure and continued to increase through 120 hours, consistent with the potential switch from conversion of MMA to ADMA by Type I PRMTs to SDMA by Type II PRMTs (FIG. 12).

KASUMI- = details: AML subtype M2, 6-day
Procedure: (§1) The growth of all cell lines was evaluated over time across a wide range of seeding densities to identify conditions that permitted proliferation throughout the entire 6-day assay. Cells were plated at the optimal seeding density and after overnight incubation, a 20-point 2-fold titration of compound was added and plates were incubated for 6 days. A replicate plate of cells was harvested at the time of compound addition to quantify the starting number of cells (T0). Values obtained after the 6 day treatment were expressed as a function of the T0 value and plotted against compound concentration. The T0 value was normalized to 100% and represents the number of cells at the time of compound addition. The data were fit with a 4 parameter equation to generate a concentration response curve and the growth IC50 (gIC50) was determined. The gIC50 is the midpoint of the ‘growth window’, the difference between the number of cells at the time of compound addition (To) and the number of cells after 6 days (DMSO control). The growth-death assay can be used to quantify the net population change, clearly defining cell death (cytotoxicity) as fewer cells compared to the number at the time of compound addition (T0).

OCI- = details: AML subtype M4, 6-day
Procedure: as §1

A375 = details: A375, melanoma, 6-day
Procedure: as §1

[3] = test system: 196 human cancer cell lines (Total); details: percent of cell lines, 196 cell lines
Procedure: as §1

Breast cancer cell lines = details: percent of cell lines, 29 cell lines
Procedure: as §1

SHI-1 = details: SHI-1, AML subtype M5, 6-day
Procedure: as §1

SW156 = details: SW156, ccRCC, 6-day
Procedure: as §1

MOLM-13 = details: MOLM-13, AML subtype M5, 6-day
Procedure: as §1

U2932 = test system: U2932
Description: (§2) FIG. 18: Propidium iodide FACS analysis of cell cycle in human lymphoma cell lines. […] Data represents the average±SEM of biological replicates, n=2.

Toledo = test system: Toledo
Description: as §2

OCI-Ly1 = test system: OCI-Ly1
Description: as §2

PRMT3 = PRMT3 (Homo sapiens, UniProt O60678); experiment: PRMT family radioactive assay; type: biochemical
[4] = test system: Toledo (human DLBCL) xenograft; details: for Body weight Difference (vs. vehicle) / Regression: Toledo (DLBCL), Day 28
[5] = test system: Toledo (human DLBCL) xenograft; details: for Body weight Difference (vs. vehicle): Toledo (DLBCL), Day 25
[6] = 60 minute SAM:Enzyme:Compound A preincubation

PRMT3, sequence (O60678 whole entry): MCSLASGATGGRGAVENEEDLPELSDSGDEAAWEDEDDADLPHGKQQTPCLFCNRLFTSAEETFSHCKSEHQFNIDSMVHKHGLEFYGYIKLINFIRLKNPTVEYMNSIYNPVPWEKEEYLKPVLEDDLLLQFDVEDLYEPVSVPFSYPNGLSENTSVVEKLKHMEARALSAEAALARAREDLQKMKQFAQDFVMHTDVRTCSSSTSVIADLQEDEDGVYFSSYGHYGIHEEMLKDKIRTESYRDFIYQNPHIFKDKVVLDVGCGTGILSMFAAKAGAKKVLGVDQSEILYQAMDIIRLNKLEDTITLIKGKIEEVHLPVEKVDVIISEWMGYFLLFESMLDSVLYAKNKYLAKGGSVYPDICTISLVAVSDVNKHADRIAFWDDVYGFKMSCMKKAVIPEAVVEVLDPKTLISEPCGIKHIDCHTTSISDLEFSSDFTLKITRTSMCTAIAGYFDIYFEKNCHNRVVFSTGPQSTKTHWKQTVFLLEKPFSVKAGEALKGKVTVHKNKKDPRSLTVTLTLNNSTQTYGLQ
PRMT8, sequence (Q9NR22 whole entry): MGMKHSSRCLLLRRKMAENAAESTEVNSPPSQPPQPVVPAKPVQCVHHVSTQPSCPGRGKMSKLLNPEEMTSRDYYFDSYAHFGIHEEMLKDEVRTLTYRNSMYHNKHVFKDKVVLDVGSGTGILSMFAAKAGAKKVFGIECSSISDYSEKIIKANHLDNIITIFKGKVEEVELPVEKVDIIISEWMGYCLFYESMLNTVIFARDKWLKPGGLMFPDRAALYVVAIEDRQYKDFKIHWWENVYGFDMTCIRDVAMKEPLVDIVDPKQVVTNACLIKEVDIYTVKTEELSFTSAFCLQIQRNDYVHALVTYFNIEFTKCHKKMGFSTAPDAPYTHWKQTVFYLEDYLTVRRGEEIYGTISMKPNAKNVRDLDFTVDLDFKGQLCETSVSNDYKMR
PRMT4, sequence (Q86X55 whole entry): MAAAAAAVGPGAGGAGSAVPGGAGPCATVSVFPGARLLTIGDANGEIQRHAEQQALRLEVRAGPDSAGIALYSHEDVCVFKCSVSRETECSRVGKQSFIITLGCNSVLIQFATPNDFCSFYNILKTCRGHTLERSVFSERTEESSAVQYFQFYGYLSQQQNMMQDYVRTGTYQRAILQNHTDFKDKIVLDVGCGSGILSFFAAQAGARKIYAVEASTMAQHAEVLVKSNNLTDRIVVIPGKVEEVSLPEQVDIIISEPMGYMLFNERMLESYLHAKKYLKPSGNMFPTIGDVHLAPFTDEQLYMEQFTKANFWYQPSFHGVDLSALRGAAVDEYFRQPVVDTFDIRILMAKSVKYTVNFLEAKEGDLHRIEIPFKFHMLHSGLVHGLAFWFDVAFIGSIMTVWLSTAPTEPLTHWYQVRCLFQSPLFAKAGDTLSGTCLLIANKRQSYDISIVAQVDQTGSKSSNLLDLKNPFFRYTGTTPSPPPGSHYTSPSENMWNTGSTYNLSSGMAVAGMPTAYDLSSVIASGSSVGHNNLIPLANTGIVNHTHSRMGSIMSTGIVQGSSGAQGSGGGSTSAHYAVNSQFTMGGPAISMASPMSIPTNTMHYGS
PRMT5/MEP50, sequence (O14744 whole entry): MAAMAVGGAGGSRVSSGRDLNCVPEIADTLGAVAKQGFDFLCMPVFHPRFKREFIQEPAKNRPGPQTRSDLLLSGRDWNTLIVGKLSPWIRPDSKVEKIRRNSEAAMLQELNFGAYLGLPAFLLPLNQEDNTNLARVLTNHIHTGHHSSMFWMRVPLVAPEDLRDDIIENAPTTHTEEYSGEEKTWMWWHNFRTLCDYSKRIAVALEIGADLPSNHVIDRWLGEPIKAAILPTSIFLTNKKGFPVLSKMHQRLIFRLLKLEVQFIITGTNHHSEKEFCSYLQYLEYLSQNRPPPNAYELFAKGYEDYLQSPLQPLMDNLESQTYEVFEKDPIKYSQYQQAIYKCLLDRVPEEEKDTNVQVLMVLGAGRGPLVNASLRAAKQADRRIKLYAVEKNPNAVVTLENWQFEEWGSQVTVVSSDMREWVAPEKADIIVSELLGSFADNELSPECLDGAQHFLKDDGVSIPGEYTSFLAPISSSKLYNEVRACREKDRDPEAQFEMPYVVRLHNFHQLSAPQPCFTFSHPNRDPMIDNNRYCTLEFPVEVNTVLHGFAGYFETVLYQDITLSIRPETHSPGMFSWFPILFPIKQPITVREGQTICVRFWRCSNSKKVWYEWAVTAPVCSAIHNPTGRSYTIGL
PRMT5/MEP50, sequence (Q9BQA1 whole entry partner): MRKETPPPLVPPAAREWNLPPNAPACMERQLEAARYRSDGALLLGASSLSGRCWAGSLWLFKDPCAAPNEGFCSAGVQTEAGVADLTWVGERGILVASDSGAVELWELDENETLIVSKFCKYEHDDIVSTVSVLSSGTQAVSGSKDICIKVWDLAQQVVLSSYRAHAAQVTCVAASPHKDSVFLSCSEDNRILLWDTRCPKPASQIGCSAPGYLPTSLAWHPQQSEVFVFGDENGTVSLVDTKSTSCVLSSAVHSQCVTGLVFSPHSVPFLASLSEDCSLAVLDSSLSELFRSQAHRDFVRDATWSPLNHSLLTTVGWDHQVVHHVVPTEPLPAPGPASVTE
PRMT9, sequence (Q6P2P2 whole entry): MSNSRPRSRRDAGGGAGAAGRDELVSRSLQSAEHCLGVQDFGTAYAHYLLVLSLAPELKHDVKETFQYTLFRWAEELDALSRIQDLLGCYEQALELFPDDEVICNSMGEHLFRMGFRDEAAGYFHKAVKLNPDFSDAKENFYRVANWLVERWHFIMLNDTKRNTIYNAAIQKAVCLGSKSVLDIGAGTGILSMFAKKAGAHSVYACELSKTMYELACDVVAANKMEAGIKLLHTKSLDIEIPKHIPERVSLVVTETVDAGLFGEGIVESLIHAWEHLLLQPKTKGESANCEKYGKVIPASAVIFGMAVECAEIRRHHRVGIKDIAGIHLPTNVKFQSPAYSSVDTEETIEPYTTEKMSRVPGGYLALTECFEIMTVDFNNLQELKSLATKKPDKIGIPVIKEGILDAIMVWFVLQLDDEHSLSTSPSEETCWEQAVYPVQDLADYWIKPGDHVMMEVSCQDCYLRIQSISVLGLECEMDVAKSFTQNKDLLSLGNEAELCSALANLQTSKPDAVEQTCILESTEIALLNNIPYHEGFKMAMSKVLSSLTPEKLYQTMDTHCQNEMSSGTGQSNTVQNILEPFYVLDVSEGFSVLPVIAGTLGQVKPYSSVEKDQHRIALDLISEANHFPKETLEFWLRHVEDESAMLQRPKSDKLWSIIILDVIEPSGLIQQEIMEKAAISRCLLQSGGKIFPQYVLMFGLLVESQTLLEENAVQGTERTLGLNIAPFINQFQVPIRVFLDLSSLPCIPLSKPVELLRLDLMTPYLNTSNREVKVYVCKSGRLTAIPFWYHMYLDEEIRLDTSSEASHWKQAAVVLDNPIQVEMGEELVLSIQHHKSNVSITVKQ

Structure (SMILES): CCOCC1(COCC)CCC(c2n[nH]cc2CN(C)CCNC)CC1 [Compound A]
- inhibition of activity (PRMT5/MEP50): failed to inhibit
- concentration at which caspase cleavage occurred (ccRCC cell lines): 30 µM
- time for ADMA to return to baseline after washout [1]: ≤ 24 h
- time for MMA to return to baseline after washout [1]: ≤ 24 h
- time for SDMA to return to baseline after washout [1]: ≤ 96 h
- inhibition of activity (PRMT9): failed to inhibit
- inhibition of activity (PRMT4; [6]): inhibited the activity
- time dependence of inhibition (PRMT4; increasing preincubation times): time dependent inhibitor
- inhibition of activity (PRMT8; [6]): inhibited the activity
- time dependence of inhibition (PRMT8; increasing preincubation times): time dependent inhibitor
- time to maximal decrease of 45 kDa ADMA band [2]: 72 to 96 h
- time to near maximal increase in MMA [2]: ≤ 48 h
- change in ADMA methylation ([2]; up to 120 hours): decreased
- change in MMA ([2]; up to 120 hours): increased
- change in SDMA ([2]; up to 120 hours): increase
- gIC100 (KASUMI-): 18.88 ± 10.55 µM
- Ymin − T0 (KASUMI-; negative = cell death): −17.7
- gIC100 (OCI-): 29.33 ± 0.00 µM
- Ymin − T0 (OCI-; negative = cell death): 523.2
- Ymin − T0 (A375): 91.9
- gIC100 (A375): 29.33 ± 0.00 µM
- % gIC100 < 2 [3]: 4%
- % Cytotoxic (Breast cancer cell lines): 10%
- % gIC100 < 2 (Breast cancer cell lines): 0%
- gIC100 (SHI-1): 29.33 ± 0.02 µM
- Ymin − T0 (SHI-1; negative = cell death): 292.0
- Ymin − T0 (SW156): 346.7
- gIC100 (MOLM-13): 8.64 ± 0.39 µM
- Ymin − T0 (MOLM-13; negative = cell death): −100.0
- concentration giving accumulation of cells in sub-G1 (U2932): 10 µM
- concentration giving accumulation of cells in sub-G1 (Toledo; after 3 days): ≥ 1000 nM
- concentration giving increase in sub-G1 population (Toledo; by day 7): ≥ 100 nM
- concentration giving accumulation of cells in sub-G1 (OCI-Ly1): 10 µM
- inhibition of activity (PRMT3; [6]): inhibited the activity
- time dependence of inhibition (PRMT3; increasing preincubation times): no time dependent behavior
- Body weight Difference (vs. vehicle) ([4]; 150 QD mg/kg oral): −4%
- Body weight Difference (vs. vehicle) ([4]; 300 QD mg/kg oral): −3%
- Regression ([4]; 300 QD mg/kg oral): 37%
- Body weight Difference (vs. vehicle) ([4]; 450 QD mg/kg oral): −8%
- Regression ([4]; 450 QD mg/kg oral): 58%
- Body weight Difference (vs. vehicle) ([4]; 600 QD mg/kg oral): −7%
- Regression ([4]; 600 QD mg/kg oral): 62%
- doses at which regressions were observed ([4]; Toledo xenograft, oral daily, 28 days): ≥ 300 mg/kg
- body weight loss ([4]; any dose group, 150-600 mg/kg daily): no significant body weight loss
- Body weight Difference (vs. vehicle) ([5]; 37.5 QD mg/kg oral): −5%
- Body weight Difference (vs. vehicle) ([5]; 75 BID mg/kg oral): −4%
- Body weight Difference (vs. vehicle) ([5]; 75 QD mg/kg oral): −5%
- Body weight Difference (vs. vehicle) ([5]; 150 QD mg/kg oral): −7%
- body weight loss ([5]; any dose group, 37.5-150 mg/kg QD or 75 mg/kg BID): No significant body weight loss
